Results reported in patent US20110190365A1, “Insecticidal 4-phenyl-1H-pyrazoles” (Bayer Crop Science AG, priority 2008, published 2011).

Experiment: log P by HPLC on a reversed-phase column (C18), EEC Directive 79/831 Annex V.A8
Assay type: physicochemical
Conditions: HCOOH
Protocol: The stated log P values were determined in accordance with EEC Directive 79/831 Annex V.A8 by HPLC (High Performance Liquid Chromatography) using a reversed-phase column (C18).

Row | Structure (SMILES) | log P (HCOOH)
1 | Cc1cc(-n2nc(C(F)(F)F)c(-c3ccc(Cl)cc3)c2N)ccc1C(=O)NCC(F)(F)C(F)F [I-A-Q2-302] | I-A-Q2-302: log P (HCOOH): 3.61
2 | Cc1cc(-n2nc(C(F)(F)F)c(-c3cc(Cl)cc(Cl)c3)c2Br)ccc1C(=O)NCc1ccccn1 [I-A-Q2-023] | I-A-Q2-023: log P (HCOOH): 4.91
3 | Cc1cc(-n2nc(C(F)(F)F)c(-c3cc(Cl)cc(Cl)c3)c2N)ccc1C(=O)NCC(C)O (stereo not shown) [I-A-Q2-262] | I-A-Q2-262: log P (HCOOH): 3.28
4 | Nc1c(-c2cc(Cl)cc(Cl)c2)c(C(F)(F)F)nn1-c1ccc(C(=O)NCC2CC2)cc1 [I-A-Q2-149] | I-A-Q2-149: log P (HCOOH): 4.15
5 | CCc1nn(-c2ccc(C(=O)NCc3ccccn3)c(C)c2)c(N)c1-c1ccc(Cl)cc1 [I-A-Q2-379] | I-A-Q2-379: log P (HCOOH): 2.20
6 | CC(NC(=O)c1ccc(-n2nc(C(F)(F)F)c(-c3cc(F)cc(Cl)c3)c2N)cc1)c1ccccn1 (stereo not shown) [I-A-Q2-088] | I-A-Q2-088: log P (HCOOH): 2.99
7 | Cc1nc(CNC(=O)c2ccc(-n3nc(C(F)(F)F)c(-c4cc(Cl)cc(Cl)c4)c3N)cc2C)no1 [I-A-Q2-059] | I-A-Q2-059: log P (HCOOH): 3.63
8 | Cc1cc(-n2nc(C(F)(F)F)c(-c3ccc(Cl)c(Cl)c3)c2N)ccc1C(=O)NC(C)C(F)(F)F (stereo not shown) [I-A-Q2-019] | I-A-Q2-019: log P (HCOOH): 4.57
9 | CC(C)NC(=O)c1ccc(-n2nc(C(F)(F)F)c(-c3cc(Cl)cc(Cl)c3)c2N)cc1 [I-A-Q2-135] | I-A-Q2-135: log P (HCOOH): 4.06
10 | CNC(=O)c1ccc(-n2nc(C(F)(F)F)c(-c3ccc(Cl)c(Cl)c3)c2N)cc1 [I-A-Q2-194] | I-A-Q2-194: log P (HCOOH): 3.37
11 | Cc1cc(-n2nc(C(F)(F)F)c(-c3ccc(Br)cc3)c2N)ccc1C(=O)NCc1ccccn1 [I-A-Q2-346] | I-A-Q2-346: log P (HCOOH): 2.80
12 | Cc1cc(-n2nc(C(F)(F)F)c(-c3ccc(F)c(F)c3)c2N)ccc1C(=O)NCC(F)(F)C(F)F [I-A-Q2-312] | I-A-Q2-312: log P (HCOOH): 3.42
13 | Cc1cc(-n2nc(C(F)(F)F)c(-c3cc(Cl)cc(Cl)c3)c2N)ccc1C(=O)NC(C)C [I-A-Q2-229] | I-A-Q2-229: log P (HCOOH): 4.05
14 | Cc1cc(-n2nc(C(F)(F)F)c(-c3cc(Cl)cc(Cl)c3)c2N)ccc1C(=O)NC1CCOCC1 [I-A-Q2-250] | I-A-Q2-250: log P (HCOOH): 3.68
15 | Cc1cc(-n2nc(C(F)(F)F)c(-c3cc(Cl)cc(Cl)c3)c2N)ccc1C(=O)NC(C)c1ccc(F)cc1 (stereo not shown) [I-A-Q2-247] | I-A-Q2-247: log P (HCOOH): 4.57
16 | Cc1cc(-n2nc(C(F)(F)F)c(-c3cccc(Br)c3)c2N)ccc1C(=O)NC(C)c1ccccn1 (stereo not shown) [I-A-Q2-418] | I-A-Q2-418: log P (HCOOH): 3.22
17 | Cc1cc(-n2nc(C(F)(F)F)c(-c3cccc(F)c3)c2N)ccc1C(=O)NCC(F)(F)C(F)F [I-A-Q2-311] | I-A-Q2-311: log P (HCOOH): 3.27
18 | Nc1c(-c2cc(Cl)cc(Cl)c2)c(C(F)(F)F)nn1-c1ccc(C(=O)NCc2ccccc2)cc1 [I-A-Q2-152] | I-A-Q2-152: log P (HCOOH): 4.45
19 | CC(NC(=O)c1ccc(-n2nc(C(F)(F)F)c(-c3ccc(Cl)c(Cl)c3)c2N)cc1)C(F)(F)F (stereo not shown) [I-A-Q2-155] | I-A-Q2-155: log P (HCOOH): 4.11
20 | Cc1cc(-n2nc(C(F)(F)F)c(-c3cc(Cl)cc(Cl)c3)c2N)ccc1C(=O)NCc1cccc(Br)n1 [I-A-Q2-253] | I-A-Q2-253: log P (HCOOH): 4.40
21 | CSc1c(-c2cc(Cl)cc(Cl)c2)c(C(F)(F)F)nn1-c1ccc(C(=O)NCc2ccccn2)c(C)c1 [I-A-Q2-028] | I-A-Q2-028: log P (HCOOH): 4.35

Row | Structure (SMILES) | log P (HCOOH)
22 | Cc1cc(-n2nc(C)c(-c3ccccc3Cl)c2N)ccc1C(=O)NCc1ccccn1 [I-A-Q2-373] | I-A-Q2-373: log P (HCOOH): 1.64
23 | Cc1cc(-n2nc(C(F)(F)F)c(-c3cc(Cl)cc(Cl)c3)c2N)ccc1C(=O)N(C)C [I-A-Q2-056] | I-A-Q2-056: log P (HCOOH): 3.93
24 | Cc1cc(-n2nc(C(F)(F)F)c(-c3ccc(Cl)cc3Cl)c2N)ccc1C(=O)NCc1ccccn1 [I-A-Q2-348] | I-A-Q2-348: log P (HCOOH): 2.84
25 | Cc1cc(-n2nc(C)c(-c3ccc(F)cc3Cl)c2N)ccc1C(=O)NCc1ccccn1 [I-A-Q2-368] | I-A-Q2-368: log P (HCOOH): 1.79
26 | Cc1cc(-n2nc(C(F)(F)Cl)c(-c3cc(Cl)cc(C(F)(F)F)c3)c2N)ccc1C(=O)NCC(F)(F)C(F)F [I-A-Q2-322] | I-A-Q2-322: log P (HCOOH): 4.34
27 | Cc1cc(-n2nc(C(F)(F)F)c(-c3cc(Cl)cc(Cl)c3)c2N)ccc1C(=O)NCC(=O)N1CCOCC1 [I-A-Q2-031] | I-A-Q2-031: log P (HCOOH): 3.33
28 | Cc1cc(-n2nc(C(F)(F)F)c(-c3cc(Cl)cc(Cl)c3)c2[S+](C)[O-])ccc1C(=O)NCC(F)(F)C(F)F (single isomer, unassigned) [I-A-Q2-283] | I-A-Q2-283: log P (HCOOH): 4.12
29 | Cc1cc(C)cc(-c2c(C(F)(F)F)nn(-c3ccc(C(=O)NCc4ccccn4)cc3)c2N)c1 [I-A-Q2-180] | I-A-Q2-180: log P (HCOOH): 2.61
30 | Cc1cc(-n2nc(C(F)(F)F)c(-c3cc(Cl)cc(Cl)c3)c2N)ccc1C(=O)NCc1ncccc1C [I-A-Q2-029] | I-A-Q2-029: log P (HCOOH): 3.24
31 | CCCc1nn(-c2ccc(C(=O)NCC(F)(F)C(F)F)c(C)c2)c(N)c1-c1ccc(Cl)cc1 [I-A-Q2-340] | I-A-Q2-340: log P (HCOOH): 3.56
32 | Nc1c(-c2cc(Cl)cc(Cl)c2)c(C(F)(F)F)nn1-c1ccc(C(=O)NCc2cccnc2)cn1 [I-A-Q2-107] | I-A-Q2-107: log P (HCOOH): 2.95
33 | Nc1c(-c2cc(F)cc(Cl)c2)c(C(F)(F)F)nn1-c1ccc(C(=O)NCC(F)(F)F)cc1 [I-A-Q2-086] | I-A-Q2-086: log P (HCOOH): 3.68
34 | Cc1cc(-n2nc(C(F)(F)F)c(-c3cc(Cl)cc(Cl)c3)c2N)ccc1C(=O)NCC(F)(F)F [I-A-Q2-014] | I-A-Q2-014: log P (HCOOH): 4.34
35 | Cc1cc(-n2nc(C(F)(F)F)c(-c3ccc(Cl)cc3Cl)c2N)ccc1C(=O)NCC(F)(F)C(F)F [I-A-Q2-305] | I-A-Q2-305: log P (HCOOH): 3.75
36 | Cc1cnc(CNC(=O)c2ccc(-n3nc(C(F)(F)F)c(-c4cc(Cl)cc(Cl)c4)c3N)cc2C)c(C)c1 [I-A-Q2-038] | I-A-Q2-038: log P (HCOOH): 3.11
37 | Cc1cc(-n2nc(C(F)(F)F)c(-c3cc(Cl)cc(Cl)c3)c2N)ccc1C(=O)NC(c1ccccn1)C(F)(F)F (stereo not shown) [I-A-Q2-054] | I-A-Q2-054: log P (HCOOH): 2.31
38 | Cc1cnc(CNC(=O)c2ccc(-n3nc(C(F)(F)F)c(-c4cc(Cl)cc(Cl)c4)c3N)cc2C)cn1 [I-A-Q2-265] | I-A-Q2-265: log P (HCOOH): 3.63
39 | COC(=O)c1ccc(-n2nc(C(F)(F)F)c(Cl)c2N)cc1C [XI-A-081] | XI-A-081: log P (HCOOH): 2.76
40 | Cc1nccc(CNC(=O)c2ccc(-n3nc(C(F)(F)F)c(-c4cc(Cl)cc(Cl)c4)c3N)cc2C)n1 [I-A-Q2-258] | I-A-Q2-258: log P (HCOOH): 3.47
41 | Cc1cc(-n2nc(C(F)(F)F)c(-c3cc(Cl)cc(Cl)c3)c2N)ccc1C(=O)NC1CCC1 [I-A-Q2-239] | I-A-Q2-239: log P (HCOOH): 4.17
42 | Cc1cc(-n2nc(C(F)(F)F)c(-c3ccc(I)cc3)c2N)ccc1C(=O)NCc1ccccn1 [I-A-Q2-356] | I-A-Q2-356: log P (HCOOH): 2.93

Same assay, conditions: HCOOH; Table 4, compounds of formula I-A-Q4

Row | Structure (SMILES) | log P (HCOOH)
43 | Nc1c(-c2cccc(Br)c2)c(C(F)(F)F)nn1-c1ccc(C(=O)O)cc1 [I-A-Q4-091] | I-A-Q4-091: log P (HCOOH): 3.29
44 | Nc1c(-c2ccc(Cl)c(F)c2)c(C(F)(F)F)nn1-c1ccc(Cl)cn1 [I-A-Q4-048] | I-A-Q4-048: log P (HCOOH): 5.02
45 | Nc1c(-c2ccc(Cl)cc2)c(C(F)(F)F)nn1-c1ccc(C(=O)O)cc1 [I-A-Q4-088] | I-A-Q4-088: log P (HCOOH): 3.28
46 | Cc1nn(-c2ccc(Cl)cn2)c(N)c1-c1cc(F)ccc1F [I-A-Q4-033] | I-A-Q4-033: log P (HCOOH): 3.84
47 | Cc1nn(-c2ccc(Cl)cn2)c(N)c1-c1c(F)cccc1Cl [I-A-Q4-031] | I-A-Q4-031: log P (HCOOH): 3.78
48 | Nc1c(-c2ccc(Cl)c(Cl)c2)c(C(F)(F)F)nn1-c1ccc(Cl)cn1 [I-A-Q4-043] | I-A-Q4-043: log P (HCOOH): 5.44
49 | COC(=O)c1ccc(-n2nc(C(F)(F)F)c(-c3cc(Cl)cc(Cl)c3)c2N)cc1N(C)C [I-A-Q4-119] | I-A-Q4-119: log P (HCOOH): 4.71
50 | Nc1c(-c2ccc(Cl)cc2)c(C2CC2)nn1-c1ccc(Cl)cn1 [I-A-Q4-024] | I-A-Q4-024: log P (HCOOH): 5.36
51 | Nc1c(-c2cc(Cl)cc(Cl)c2)c(C(F)(F)F)nn1-c1ccc(Cl)cn1 [I-A-Q4-014] | I-A-Q4-014: log P (HCOOH): 5.76
52 | Cc1nn(-c2ccc(Cl)cn2)c(N)c1-c1ccc(Cl)c(Cl)c1 [I-A-Q4-060] | I-A-Q4-060: log P (HCOOH): 5.02
53 | Nc1c(-c2ccc(Cl)cc2)c(C(F)F)nn1-c1ccc(Cl)cn1 [I-A-Q4-057] | I-A-Q4-057: log P (HCOOH): 4.45

Same assay, conditions: HCOOH; Table 6, compounds of formula I-B-Q2

Row | Structure (SMILES) | log P (HCOOH)
54 | O=C(NCC(F)(F)C(F)F)c1ccc(-n2cc(-c3cc(Cl)cc(Cl)c3)c(C(F)(F)F)n2)c2ccccc12 [I-B-Q2-021] | I-B-Q2-021: log P (HCOOH): 4.58

Same assay, conditions: HCOOH; compounds of the formula (IX), Table 11

Row | Structure (SMILES) | log P (HCOOH)
55 | CC(=O)Nc1[nH]nc(C(F)(F)F)c1-c1cc(Cl)cc(Cl)c1 [IX-203] | IX-203: log P (HCOOH): 2.98

Same assay, conditions: HPLC, reversed-phase C18, mobile phase with formic acid

Row | Structure (SMILES) | log P (HCOOH)
56 | Cc1nn(-c2ccc(-n3cncn3)c(C#N)c2)c(N)c1-c1c(F)cccc1Cl [I-A-Q1-051] | I-A-Q1-051: log P (HCOOH): 2.27
57 | CCc1nn(-c2ccc(-n3cncn3)c(C#N)c2)c(N)c1-c1ccc(Cl)cc1 [I-A-Q1-062] | I-A-Q1-062: log P (HCOOH): 3.09
58 | CCCc1nn(-c2ccc(-n3cncn3)c(C#N)c2)c(N)c1-c1ccc(Cl)cc1 [I-A-Q1-065] | I-A-Q1-065: log P (HCOOH): 3.33
59 | Cc1nn(-c2ccc(-n3cncn3)c(C#N)c2)c(N)c1-c1c(F)cccc1F [I-A-Q1-054] | I-A-Q1-054: log P (HCOOH): 2.18
60 | N#Cc1cc(-n2nc(C(F)(F)Oc3ccccc3Cl)c(-c3cc(Cl)cc(C(F)(F)F)c3)c2N)ccc1-n1cncn1 [I-A-Q1-073] | I-A-Q1-073: log P (HCOOH): 4.51
61 | Cc1nc(C(F)(F)F)nn1-c1ccc(-n2nc(C(F)(F)F)c(-c3cc(Cl)cc(Cl)c3)c2N)cc1C#N [I-A-Q1-086] | I-A-Q1-086: log P (HCOOH): 4.57
